One assay concerns the target gp120-CD4 interaction (Human immunodeficiency virus type 1 group M subtype B, UniProt P03375). The assay can be described thus: biochemical. It counts as binding, HIV-1.
For another assay, the system named is MT-2. The assay can be described thus: MT-2 activity. Particulars: Homo sapiens, MT2. It counts as cell-based.
Another assay has as its system HIV-1 isolate JR-FL. Nature of the assay: viral inhibition assay, HIV-1 isolate JR-FL. Particulars: Human immunodeficiency virus 1, TZM-b1, read-out: IC50 JR-FL. In kind it is cell-based. Here is the method:
(§1) In this assay, viral inhibition was determined by HIV Tat-induced luciferase (Luc) reporter gene expression after a single round of virus infection in TZM-b1 cells according to the method of Platt, et al., J. Virol. 1998, 72, 2855-64.

A further assay has as its system HIV-1 isolate ADA. Nature of the assay: viral inhibition assay, HIV-1 isolate ADA. In kind it is cell-based. Here is the method: as §1
The next assay deals with HIV-1 isolate HXBc2. The assay can be described thus: viral inhibition assay, HIV-1 isolate HXBc2. It counts as cell-based. Particulars: Human immunodeficiency virus 1, TZM-b1, read-out: IC50 HXBc2. The procedure: as §1
In a further assay the test system is HIV-1 isolate SF162. The assay can be described thus: viral inhibition assay, HIV-1 isolate SF162. It counts as cell-based. Particulars: Human immunodeficiency virus 1, TZM-b1, read-out: IC50 SF162. Here is the method:
as §1

The test system of a further assay is HIV-1 isolate BaL. The assay can be described thus: viral inhibition assay, HIV-1 isolate BaL. It counts as cell-based. Here is the method:
as §1

The structures appear in SMILES notation. Read-outs that look alike come from different tables or passages of the source.

A word on the IC50: it is the point on the concentration scale where inhibition reaches its midpoint. On gp120-CD4 interaction, `COc1ccc(-c2ccc(CNC(=O)COCCOCCOCCOCCn3cc(COCCOCCOCCOCCNc4ccc([N+](=O)[O-])cc4[N+](=O)[O-])nn3)o2)c2[nH]cc(C(=O)C(=O)N3CCN(C(=O)c4ccc(C(C)C)cc4)CC3)c12` registered an IC50 of 0.953 µM.

As to `COc1ccc(-c2ccc(CNC(=O)COCCOCCOCCOCCn3cc(COCCOCCOCCOCCNc4ccc([N+](=O)[O-])cc4[N+](=O)[O-])nn3)o2)c2[nH]cc(C(=O)C(=O)N3CCN(C(=O)c4ccc(CO)cc4)CC3)c12`, the IC50 at gp120-CD4 interaction is 0.422 µM; in the assay on MT-2 it was roughly 1 µM.

Consider `COc1ccc(-c2ccc(CNC(=O)COCCOCCOCCOCCn3cc(COCCOCCOCCOCCNc4ccc([N+](=O)[O-])cc4[N+](=O)[O-])nn3)o2)c2[nH]cc(C(=O)C(=O)N3CCN(C(=O)c4ccc(O)cc4)CC3)c12`, for which the IC50 against gp120-CD4 interaction turned out to be 0.239 µM; in the assay on MT-2 it was 0.09 µM.

Consider `COc1ccc(-c2ccc(CNC(=O)COCCOCCOCCOCCn3cc(COCCOCCOCCOCCNc4ccc([N+](=O)[O-])cc4[N+](=O)[O-])nn3)o2)c2[nH]cc(C(=O)C(=O)N3CCN(C(=O)c4cc(O)cc(O)c4)CC3)c12`, for which the IC50 at gp120-CD4 interaction amounted to 0.745 µM; in the assay with MT-2, 0.23 µM.

As for `COc1ccc(-c2ccc(CNC(=O)COCCOCCOCCOCCn3cc(COCCOCCOCCOCCNc4ccc([N+](=O)[O-])cc4[N+](=O)[O-])nn3)o2)c2[nH]cc(C(=O)C(=O)N3CCN(C(=O)c4ccccc4C)CC3)c12`, the IC50 at gp120-CD4 interaction is 5.14 µM; with MT-2, roughly 25 µM.

In the case of `COc1ccc(-c2ccc(CNC(=O)COCCOCCOCCOCCn3cc(COCCOCCOCCOCCNc4ccc([N+](=O)[O-])cc4[N+](=O)[O-])nn3)o2)c2[nH]cc(C(=O)C(=O)N3CCN(C(=O)c4ccccn4)CC3)c12`, the figures for the IC50 at gp120-CD4 interaction and with MT-2 were 0.62 µM and 0.048 µM, respectively.

In the case of `COc1ccc(-c2ccc(CNC(=O)COCCOCCOCCOCCn3cc(COCCOCCOCCOCCNc4ccc([N+](=O)[O-])cc4[N+](=O)[O-])nn3)o2)c2[nH]cc(C(=O)C(=O)N3CCN(C(=O)c4ccccc4O)CC3)c12`, the IC50 against gp120-CD4 interaction is 0.49 µM; in the assay on MT-2, 0.2 µM.

As for `COc1ccc(-c2ccc(CNC(=O)COCCOCCOCCOCCn3cc(COCCOCCOCCOCCNc4ccc([N+](=O)[O-])cc4[N+](=O)[O-])nn3)o2)c2[nH]cc(C(=O)C(=O)N3CCN(C(=O)c4ccncc4)CC3)c12`, the IC50 on gp120-CD4 interaction amounted to 4.7 µM; with MT-2 it was 9.3 µM.

With `COc1ccc(-c2ccc(CNC(=O)COCCOCCOCCOCCn3cc(COCCOCCOCCOCCNc4ccc([N+](=O)[O-])cc4[N+](=O)[O-])nn3)o2)c2[nH]cc(C(=O)C(=O)N3CCN(C(=O)c4ccc(C)cc4)CC3)c12`, the figures for the IC50 against gp120-CD4 interaction and in the assay with MT-2 were 0.447 µM and 0.025 µM, respectively.

On to `COc1ccc(-c2ccc(CNC(=O)COCCOCCOCCOCCOCCOCCn3cc(COCCOCCOCCOCCNc4ccc([N+](=O)[O-])cc4[N+](=O)[O-])nn3)o2)c2[nH]cc(C(=O)C(=O)N3CCN(C(=O)c4ccccc4)CC3)c12` [C5-furan], for which the IC50 stood at 0.00072 µM in the assay with HIV-1 isolate JR-FL; 0.00635 µM in the assay on HIV-1 isolate ADA (Human immunodeficiency virus 1, TZM-b1, read-out: IC50 ADA); 0.0103 µM in the assay on HIV-1 isolate HXBc2; 0.309 µM in the assay on HIV-1 isolate SF162; 0.0348 µM in the assay with HIV-1 isolate BaL (Human immunodeficiency virus 1, BAL, TZM-b1, read-out: IC50 BaL).

Consider `COc1ccc(-c2ccc(CNC(=O)COCCOCCOCCOCCn3cc(COCCOCCOCCOCCNc4ccc([N+](=O)[O-])cc4[N+](=O)[O-])nn3)o2)c2[nH]cc(C(=O)C(=O)N3CCN(C(=O)c4cccc(O)c4)CC3)c12`, for which the results for the IC50 at gp120-CD4 interaction and in the assay on MT-2 were 0.2 µM and 0.09 µM, respectively.

For the molecule `CCc1ccc(C(=O)N2CCN(C(=O)C(=O)c3c[nH]c4c(-c5ccc(CNC(=O)COCCOCCOCCOCCn6cc(COCCOCCOCCOCCNc7ccc([N+](=O)[O-])cc7[N+](=O)[O-])nn6)o5)ccc(OC)c34)CC2)cc1`, the IC50 is 0.469 µM against gp120-CD4 interaction and roughly 0.6 µM in the assay on MT-2.

Regarding `COc1ccc(-c2ccc(CNC(=O)COCCOCCOCCOCCn3cc(COCCOCCOCCOCCNc4ccc([N+](=O)[O-])cc4[N+](=O)[O-])nn3)o2)c2[nH]cc(C(=O)C(=O)N3CCN(C(=O)c4ccc5ccccc5c4)CC3)c12`, the IC50 was 5.24 µM against gp120-CD4 interaction and roughly 5 µM in the assay on MT-2.

As for `COc1ccc(-c2ccc(CNC(=O)COCCOCCOCCOCCn3cc(COCCOCCOCCOCCNc4ccc([N+](=O)[O-])cc4[N+](=O)[O-])nn3)o2)c2[nH]cc(C(=O)C(=O)N3CCN(C(=O)c4cccnc4)CC3)c12`, the IC50 amounted to 3.7 µM against gp120-CD4 interaction and 1.3 µM in the assay with MT-2.

Turning to `COc1ccc(-c2ccc(CNC(=O)COCCOCCOCCOCCn3cc(COCCOCCOCCOCCNc4ccc([N+](=O)[O-])cc4[N+](=O)[O-])nn3)o2)c2[nH]cc(C(=O)C(=O)N3CCN(C(=O)c4cccc(C)c4)CC3)c12`, the figures for the IC50 on gp120-CD4 interaction and in the assay on MT-2 were 1.36 µM and roughly 0.6 µM, respectively.

`COc1ccnc2[nH]cc(C(=O)C(=O)N3CCN(C(=O)c4ccccc4)C[C@H]3C)c12` [BMS-378806, 4-benzoyl-1-(2-(4-methoxy-1H-pyrrolo(2,3-b)pyridin-3-yl)-1,2-dioxoethyl)-2-methyl-, (2R)-Piperazine, reference compound]: the IC50 was 2.6 µM in the assay with HIV-1 isolate JR-FL; 0.344 µM with HIV-1 isolate ADA (Human immunodeficiency virus 1, HIV Tat-induced luciferase reporter gene expression after a single round of virus infection in TZM-b1 cells, read-out: IC50 ADA); 0.0319 µM in the assay on HIV-1 isolate HXBc2; 0.359 µM with HIV-1 isolate SF162. In addition, in the assay with HIV-1 isolate BaL (HIV Tat-induced luciferase reporter gene expression after a single round of virus infection in TZM-b1 cells), the “IC50 BaL” value is recorded as “dnc”.
